Results from patent publication US20040249129A1, “Novel lactic bacteria of the genus lactococcus lactis and use thereof for preserving food products” (priority 2001, published 2004).
Where a SMILES comes first, the peptide text is derived from it. Bridges are numbered along the chain shown (N, C = ends). [ ]: non-standard residue; d: D form. The star is where a group is joined. Ileψ(thiazoline)Cys = CC[C@H](C)[C@H](N)C1=N[C@H](C(=O)*)CS1; dOrn = NCCC[C@@H](N)C(=O)O

Test system: LLO strain
Assay: antibiogram of the strain LLO with antibiotic discs
Assay type: cell-based, Lactococcus lactis
Conditions: antibiotic discs on Mueller Hinton medium, 5% horse blood, pH 7.3; 48 hours at ambient temperature; streptomycin 10 U.I., kanamycin 30 U.I., gentamicin 10 U.I.
Experimental: An antibiogram has been produced with the strain LLO to study its resistance to several antibiotics.
The test is carried out on Mueller Hinton medium containing 1.7% agar and 5% horse blood, the pH is 7.3. The thickness of the agar in the Petri dishes is constant, it is 4 mm. It is a standardized medium according to the O.M.S. standards.
The LLO strain is cultivated in an MRS broth, pH 6.5, for […] at 15° C. until there is obtained the stationary phase. The culture is diluted to 1/10th in a Mueller Hinton broth. The approximate concentration of the suspension is 10^6 bacteria/ml.
The agar media are completely covered with 2 ml of the suspension. The excess liquid is withdrawn and the dishes are dried 10 minutes at ambient temperature. The antibiotic discs are deposited with the help of tongs (4 maximum). The dishes are incubated at ambient temperature for 48 hours.

Compound	Result (antibiogram)
CC1(C)S[C@@H]2[C@H](NC(=O)Cc3ccccc3)C(=O)N2[C@H]1C(=O)O [Penicillin G]	Noticeable
Gentamicin	Noticeable
CC1CCc2cc(F)cc3c(=O)c(C(=O)O)cn1c23 (stereo not drawn) [Flumequin]	Resistant
CC[C@H]1OC(=O)[C@H](C)[C@@H](O[C@H]2C[C@@](C)(OC)[C@@H](O)[C@H](C)O2)[C@H](C)[C@@H](O[C@@H]2O[C@H](C)C[C@H](N(C)C)[C@H]2O)[C@](C)(O)C[C@@H](C)C(=O)[C@H](C)[C@@H](O)[C@]1(C)O [Erythromycin]	Noticeable
c1ccoc1 [Furan]	Resistant
C[C@H]1c2cccc(O)c2C(O)=C2C(=O)[C@]3(O)C(O)=C(C(N)=O)C(=O)[C@@H](N(C)C)[C@@H]3[C@@H](O)[C@@H]21 [Doxycyclin]	Noticeable
CCN1CCN(c2cc3c(cc2F)c(=O)c(C(=O)O)cn3C2CC2)CC1 [Enrofloxacin]	Noticeable
CCC[C@@H]1C[C@@H](C(=O)N[C@@H]([C@H]2O[C@H](SC)[C@H](O)[C@@H](O)[C@H]2O)[C@@H](C)O)N(C)C1 [Lincomycin]	Noticeable
CC1=C(C(=O)O)N2C(=O)[C@@H](NC(=O)[C@H](N)c3ccccc3)[C@H]2SC1 [Cefalexin]	Noticeable
Spiramycin	Noticeable
[H]/N=C(/N)N[C@H]1[C@H](O)[C@@H](O)[C@H](O[C@@H]2O[C@@H](C)[C@](O)(C=O)[C@H]2O[C@@H]2O[C@@H](CO)[C@H](O)[C@@H](O)[C@@H]2NC)[C@@H](N/C(N)=N\[H])[C@@H]1O [Streptomycin]	Noticeable
CC1(C)S[C@@H]2[C@H](NC(=O)[C@H](N)c3ccccc3)C(=O)N2[C@H]1C(=O)O [Ampicillin]	Noticeable
CC[C@H](C)[C@H](N)C1=N[C@H](C(=O)N[C@@H](CC(C)C)C(=O)N[C@H](CCC(=O)O)C(=O)N[C@H](C(=O)N[C@H]2CCCCNC(=O)[C@H](CC(N)=O)NC(=O)[C@@H](CC(=O)O)NC(=O)[C@H](Cc3cnc[nH]3)NC(=O)[C@@H](Cc3ccccc3)NC(=O)[C@H]([C@@H](C)CC)NC(=O)[C@@H](CCCN)NC2=O)[C@@H](C)CC)CS1 [Bacitracin] ({Ileψ(thiazoline)Cys}-L[dE]IK[dOrn]I[dF]H[dD]N; lactam 4-C)	Noticeable
CN(C)[C@@H]1C(=O)C(C(N)=O)=C(O)[C@@]2(O)C(=O)C3=C(O)c4c(O)cccc4[C@@](C)(O)[C@H]3C[C@@H]12 [Tetracyclin]	Noticeable
O=C(N[C@H](CO)[C@H](O)c1ccc([N+](=O)[O-])cc1)C(Cl)Cl [Chloramphenicol]	Noticeable
